Reference: paper PMC6843445, “Pharmacokinetic Properties of Fluorescently Labelled Hydroxypropyl-Beta-Cyclodextrin” (Biomolecules, 2019)

Key:
[1] = In vivo pharmacokinetic investigation, plasma FITC-HPBCD after i.v. administration; design: species or system BALB/c male mice; conditions: for CL: clearance = terminal ke × Vd1; for CL / ke (1–15 min) / t1/2 (1–15 min) / t1/2 (15–30 min) / t1/2 (30–60 min) / ke (15–30 min) / t1/2 (15–45 min) / t1/2 (45–60 min) / ke (15–45 min) / kc (1–15 min) / ke (30–60 min) / ke (45–60 min) / Vd: dose 250 µg; for ke (1–15 min): elimination rate constant; for ke (1–15 min) / ke (15–30 min) / ke (15–45 min) / kc (1–15 min) / ke (30–60 min) / ke (45–60 min): in min-1 (unit assumed); for t1/2 (1–15 min) / t1/2 (15–30 min) / t1/2 (30–60 min) / t1/2 (15–45 min) / t1/2 (45–60 min): in min; for Vd at 1 min of sampling: n = 6; for kc (1–15 min): rate constant of compartmentalization; for ke (30–60 min) / ke (45–60 min): terminal phase; for Vd: volume of distribution at 1 min
Experimental: Twelve BALB/c male mice (23–25 g) were involved in the study. 0.25 mg FITC-HPBCD, dissolved in 0.2 mL saline solution was injected into the lateral tail vein of each mouse. Blood samples were collected from the orbital sinus from six mice after 1, 15, 30 and 60 min and at 1, 15, 45 and 60 min from other six mice by the same sampling method. Blood samples were incubated for 1 h at 37 °C and centrifuged for 8 min at 1700 rpm to separate blood plasma. Aliquots of plasma from the samples were placed into black 96-well plates and their fluorescence intensities were measured by a FLUOstar Optima microplate reader (BMG LABTECH, Offenburg, Germany; 492 nm excitation and 520 nm emission wavelengths) and the plasma FITC-HPBCD concentrations were calculated.
The two compartment model was characterized by the following equations:(3) Ct=C^′×e^−kc×t+C^″×e^−ke×t (4) C0=C^′+C^″ where ke is the elimination rate constant of FITC-HPBCD determined from data of the terminal phase (ke(30-60 min) or ke(45-60 min)); t1/2 is the half-life of FITC-HPBCD calculated from the corresponding ke values; CL is the clearance of FITC-HPBCD; Vd is the volume of distribution of FITC-HPBCD determined from data related to the first minute (Vd1); Ct is the plasma concentration of FITC-HPBCD at “t”; C′ and C″ are the two components of the initial plasma concentration of FITC-HPBCD representing the amount of FITC-HPBCD that will be compartmentalized and eliminated, respectively.

HUVECs [2] = assay: Intracellular FITC-HPBCD accumulation, fluorescence microscopy; format: cell-based, Human; conditions: 50 µM, 30 min, 37 °C
Experimental: (§1) Human umbilical vein endothelial cells (HUVECs) were removed from umbilical veins by exposure to dispase (0.2% in Hank’s balanced salt solution) and cultured in gelatin-coated flasks in medium 199 containing 15% foetal bovine serum (FBS), antibiotics, L-glutamine, sodium pyruvate and endothelial cell growth supplement from bovine pituitary. For the fluorescent microscopic experiments, cells were seeded onto gelatin-coated round glass coverslips and maintained in medium until the treatments.
HUVECs, cultured on gelatin-coated glass coverslips were washed twice with Hank’s Balanced Salt Solution (HBSS) and treated with 50 µM FITC-HPBCD for 30 min at 37 °C. Cells were washed five times with ice-cold HBSS and fixed with 3% paraformaldehyde for 15 min. After fixation cells were washed with HBSS and the nuclei were stained with Hoechst 33,342 at the final concentration of 300 nM. Cells were washed again and mounted on microscope slides. […] Images were analyzed with ZEN 2012 v.1.1.0.0. software (Carl Zeiss Microscopy GmbH, Göttingen, Germany)

HUVECs [3] = assay: FITC-HPBCD uptake, flow cytometry; format: cell-based, Human
Experimental: as §1
In the flow cytometry experiments, HUVECs were treated with 50 µM FITC-HPBCD for 30 min at 37 °C and washed five times with ice-cold HBSS. Half of the samples were incubated for a further 60 min in HBSS at 37 °C. After the above-mentioned incubations every sample was trypsinized, the cell suspensions were washed twice with ice-cold HBSS and analyzed with a FACScan flow cytometer (BD Biosciences, San Jose, CA, USA). Propidium-iodide (PI) (2 µg/mL) was added to the samples to recognize dead cells and exclude them from the evaluation. FITC-HPBCD was excited by an argon laser at 488 nm and the emission was detected via 530/30 nm band pass filter. Data were analyzed by BDIS Cellquest software (Becton-Dickinson). The cellular fluorescence intensities of the FITC-HPBCD treated cells were compared to the fluorescence of the untreated control cells and expressed as relative cellular fluorescence intensities.

[4] = Tissue accumulation in the supernatant of tissue homogenates ex vivo; design: species or system BALB/c male mice; conditions: mice, i.v., after 60 min
Experimental: After the last blood sample collection, six animals were anaesthetized, and their blood vessels were perfused by warm saline solution. Finally, all mice were sacrificed, and the organs were removed from the six saline-perfused mice for further analysis. The collected organs (livers, lungs, kidneys, spleens, hearts and brains) were homogenized by adding 0.8 mL saline solution and the homogenates were centrifuged at 10,000 rpm for 20 min at 4 °C. From each sample, 0.1 mL of supernatant was placed into black 96-well plates and the fluorescence intensities were measured by microplate reader as described above. The lower limit of quantification of FITC-HPBCD in mouse plasma and organ homogenates was 0.25 µg/mL. The protein content of the tissue samples was determined by PierceTM BCA protein assay (Thermo Scientific, Rockford, IL, USA) according to the manufacturer’s instruction. FITC-HPBCD content of the samples was normalized to the tissue protein content. The animals were maintained in accordance with the Guidelines for the Care and Use of Laboratory Animals; experiments were approved by the Animal Care Committee of the University of Debrecen (permission no. 12/2014).

[5] = mice, i.v., Group F, sampling 1, 15, 30 and 60 min
[6] = mice, i.v., Group F, sampling 1, 15, 45 and 60 min
[7] = mice, i.v., Group NF, sampling 1, 15, 30 and 60 min
[8] = mice, i.v., Group NF, sampling 1, 15, 45 and 60 min

## 6-deoxy-6-[(5/6)-fluoresceinylthioureido]-(2-hydroxypropyl)-β-cyclodextrin [FITC-HPBCD]
[1]; [5]
  CL: 0.11 ± 0.15 mL/min
  ke (1–15 min): 0.092 ± 0.023
  t1/2 (15–30 min): 7.54 ± 0.52
  t1/2 (30–60 min): 122.3 ± 109.4
  ke (15–30 min): 0.092 ± 0.007
  kc (1–15 min): 0.109 ± 0.026
  ke (30–60 min): 0.022 ± 0.029
  Vd: 4.86 ± 0.21 mL
[1]; [6]
  CL: 0.23 ± 0.08 mL/min
  ke (1–15 min): 0.095 ± 0.017
  t1/2 (1–15 min): 7.5 ± 1.13
  t1/2 (15–45 min): 13.55 ± 1.45
  t1/2 (45–60 min): 20.06 ± 3.89
  ke (15–45 min): 0.052 ± 0.007
  kc (1–15 min): 0.142 ± 0.033
  ke (45–60 min): 0.036 ± 0.008
  Vd: 6.25 ± 0.77 mL
[1]; [7]
  CL: 0.25 ± 0.15 mL/min
  ke (1–15 min): 0.115 ± 0.017
  t1/2 (15–30 min): 35.01 ± 10.15
  t1/2 (30–60 min): 16.61 ± 7.12
  ke (15–30 min): 0.022 ± 0.009
  ke (30–60 min): 0.049 ± 0.020
  Vd: 4.70 ± 1.27 mL
[1]; [8]
  CL: 0.69 ± 0.38 mL/min
  ke (1–15 min): 0.107 ± 0.006
  t1/2 (1–15 min): 6.50 ± 0.31
  t1/2 (15–45 min): 13.36 ± 3.05
  t1/2 (45–60 min): 8.99 ± 4.54
  ke (15–45 min): 0.054 ± 0.013
  ke (45–60 min): 0.095 ± 0.044
  Vd: 7.01 ± 0.81 mL
[1]; mice, i.v., all animals n = 12
  Vd at the first minute, average: 5.7 ± 1.34 mL
[1]; mice, i.v., Group F (followed two-compartment model), sampling 1, 15, 30 and 60 min
  t1/2 (1–15 min): 7.82 ± 1.48
[1]; mice, i.v., Group NF (did not follow model), sampling 1, 15, 30 and 60 min
  t1/2 (1–15 min): 6.13 ± 0.78
[1]; mice, i.v., group following the model
  Vd at 1 min of sampling: 5.55 ± 0.98 mL
[1]; mice, i.v., group not following the model
  Vd at 1 min of sampling: 5.85 ± 1.72 mL
[1]; mouse, in vivo, iv
  i.v. administered FITC-HPBCD eliminated from mice within 60 min: 96.58 ± 2.6%
HUVECs [2]
  cellular localization by fluorescence microscopy: detected in the cytoplasm of HUVECs in small green vesicles
HUVECs [3]; 50 µM 30 min, then 60 min in HBSS
  cellular fluorescence after further incubation in HBSS: significantly decreased
HUVECs [3]; 50 µM, 30 min incubation
  cellular fluorescence vs untreated control: significantly increased
[4]
  fluorescence intensities in the supernatant of liver, lung, spleen, heart and brain homogenates: not elevated
[4]; normalized to tissue protein content
  fluorescence intensity in the supernatant of kidney homogenates: significant fluorescence
